According to patent US20240024294A1, “COMPOSITIONS AND METHODS FOR THE TREATMENT OR PREVENTION OF PRETERM LABOR” (XOMA (US) LLC, priority 2020, published 2024):
One block for each compound: values may come before it.

Columns and labels:
[1] = test system: pregnant women with threatened spontaneous preterm labor; assay: Phase II clinical trial Part B: adverse events; assay type: in vivo, human; details: patients undergoing atosiban infusion
Method: (§1) A total of n=58 patients were treated with compound (2) and atosiban, and n=55 patients were treated with placebo and atosiban. As in part A, patients underwent a 48-hour infusion with atosiban. On the first day of atosiban treatment, patients were administered either placebo or compound (2) in a loading dose of 1,000 mg. On subsequent days, patients were then administered either placebo or compound (2) twice daily in an amount of 500 mg per dose until delivery.
All participants received intravenous atosiban as standard-of-care therapy according to the approved product label for 48 hours. […]
Safety was assessed by way of the following outcomes: • maternal incidence of adverse events (AEs), treatment-emergent adverse events (TEAEs), clinically significant changes in laboratory safety tests, and vital signs from Day 1 until 28 days after birth; • incidence of AEs indicating fetal distress, such as growth retardation and/or changes in fetal heart rate monitoring and/or amniotic fluid index (AFI) or amniotic fluid volume (in twins); and incidence of neonates experiencing adverse events, as well as clinically significant changes in vital signs, Apgar score, weight and head circumference at birth, and a measure of neonatal morbidity from birth until 28 days after birth.

[2] = test system: pregnant women with threatened spontaneous preterm labor; assay: Phase II clinical trial Part A: safety (Doppler ultrasound, Amniotic Fluid Index, adverse events); assay type: in vivo, human
Method: (§2) Subjects participating in Part A of the study were diagnosed with preterm labor and were already receiving an atosiban infusion for 48 hours. Compound (2) was administered orally to each subject in an amount of 500 mg twice daily for 7 days, with a loading dose of 1,000 mg on Day 1.
(§3) In Part A of the study, fetal cardiac safety was monitored using Doppler ultrasound, and compound (2) pharmacokinetics were assessed on days 1, 2, 3 and 7 of the study. Amniotic Fluid Index was monitored from days 1 to 14. Time to delivery was also assessed.

[3] = target: T1, Pept1 transporter protein (Homo sapiens, UniProt P46059); assay: Pept1 transporter substrate assessment; assay type: in vitro ADME; details: compound 2 and salts thereof
T1 sequence (P46059 1-708): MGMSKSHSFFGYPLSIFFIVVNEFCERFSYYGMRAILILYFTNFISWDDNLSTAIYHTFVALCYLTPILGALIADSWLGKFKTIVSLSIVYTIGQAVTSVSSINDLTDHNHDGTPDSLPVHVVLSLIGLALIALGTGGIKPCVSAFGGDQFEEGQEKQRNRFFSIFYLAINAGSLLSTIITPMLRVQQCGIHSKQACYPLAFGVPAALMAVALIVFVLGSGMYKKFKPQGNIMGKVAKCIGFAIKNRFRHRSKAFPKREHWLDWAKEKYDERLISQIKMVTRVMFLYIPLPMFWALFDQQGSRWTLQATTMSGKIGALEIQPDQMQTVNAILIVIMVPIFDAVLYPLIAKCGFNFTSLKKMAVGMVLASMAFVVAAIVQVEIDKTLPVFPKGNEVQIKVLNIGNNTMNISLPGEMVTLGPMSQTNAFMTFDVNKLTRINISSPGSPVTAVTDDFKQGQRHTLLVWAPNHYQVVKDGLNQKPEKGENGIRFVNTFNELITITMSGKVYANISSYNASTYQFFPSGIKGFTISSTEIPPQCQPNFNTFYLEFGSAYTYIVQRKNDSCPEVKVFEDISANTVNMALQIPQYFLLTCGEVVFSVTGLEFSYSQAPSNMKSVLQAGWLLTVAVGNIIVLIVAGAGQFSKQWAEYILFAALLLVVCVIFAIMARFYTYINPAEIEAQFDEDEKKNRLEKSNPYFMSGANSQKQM
Description: Compound 2 is de-esterified by ambient esterases in the small intestine and subsequently penetrates the small intestinal epithelium passively. […] Pept1 is known to mediate the absorption of a variety of valinate esters, as described, for example, in Vig et al., Adv. Drug Deliv. Rev. 65:1370-1385 (2013). […] Despite the presence the valinate ester functionality, compound 2 and salts thereof are not dependent upon this transporter for absorption across the small intestinal epithelium. […] Rather, compound 2 and salts thereof are converted in vivo to a form that is readily absorbed in a manner independent of energy and local proton gradient. This beneficial property, coupled with the high aqueous solubility of compound I and salts thereof, fosters a pharmacokinetic profile in which compound 2 and salts thereof readily dissolve in an aqueous environment and are in turn converted into a form capable of transported-independent absorption.

[4] = relative to compound 1; cited from earlier work
[5] = Phase II clinical trial Part A: plasma pharmacokinetics; assay type: in vivo, human
Method: as §2, §3

[6] = test system: pregnant women with threatened spontaneous preterm labor; assay: Phase II clinical trial Part B: efficacy to delay preterm birth; assay type: in vivo, human
Method: as §1
Gestational age was confirmed by a first trimester ultrasound scan or by fertilization date. […] Subjects were required to begin treatment with atosiban within 24 hours before starting study treatment.
All participants received intravenous atosiban as standard-of-care therapy according to the approved product label for 48 hours. Treatment with study medication was to be initiated ideally simultaneously or at a maximum within 24 hours after initiating atosiban treatment. The loading dose of compound (2) was 1000 mg, with a maintenance dose of 500 mg twice a day, each 12 hours apart, for 7 days. Women allocated to the control group received the same dosing regimen with placebo. Subjects were instructed to record IMP administration in a patient diary and had to bring both opened and unopened IMP packages to each visit, in order to allow the assessment of compliance with study treatment.
Efficacy to delay preterm birth was assessed using the following outcomes: • delivery within 48 hours from start of treatment medication; • delivery within 7 days from start of treatment medication; • delivery before 37 weeks gestational age; and • time to delivery measured from start of treatment medication.
As this study was a proof-of-concept study, a primary efficacy endpoint was not prospectively defined. Other outcomes included the following: • uterine contractions assessed by electrohysterography, tocodynamometry, or abdominal palpation at each hour during the first 6 hours after start of test treatment; and • maternal plasma concentrations and pharmacokinetics of compound (1) (the active metabolite of compound (2)) and fetal cord blood concentrations at the time of delivery.
Analyses of the incidence of delivery within 2 days (48 h), within 7 days (168 h) post-compound (2) administration start, and before 37 weeks of gestational age was performed using logistic regression with treatment group as the independent variable. Strata effects (gestational age and number of fetuses) were included within the model. The treatment effect was expressed as an adjusted odds ratio with 90% confidence intervals. Treatment by strata interaction terms were explored. Other covariates explored included the pre-dose uterine contraction rate as well as the possibility of a site-to-site effect. Time to delivery measured from start of IMP administration was analyzed using Cox's proportional-hazards model. In addition, a log-rank test was performed. The analysis was performed using SAS® statistical software Version 9.4. P-values <0.10 were considered to indicate statistical significance.

[7] = test system: pregnant women with threatened spontaneous preterm labor; assay: Phase II clinical trial Part A: time to delivery; assay type: in vivo, human
Method: This example reports results of a Phase II clinical trial of compound (2) in pregnant women with threatened spontaneous preterm labor. In part A of the study, compound (2) was administered in open-label fashion to n=9 patients with gestational ages of from 28 to 34 weeks in order to assess pharmacokinetics and safety. In part B of the study, compound (2) was administered to a more expansive set of n=58 subjects in order to assess efficacy, as well as to further evaluate safety.
as §2, §3

[8] = crystal form stability and hygroscopicity; assay type: physicochemical
Description: For example, this compound is readily crystallized using a several distinct experimental procedures. Compound 3 assumes a single, reproducible crystal form upon crystallization from a variety of media and under different ambient conditions. […] For instance, impurities associated with atmospheric water are not readily integrated into the crystalline form of compound 3.

[9] = target: human PGF2α receptor (Homo sapiens, UniProt P43088); details: competitive radioligand binding, U.S. Pat. No. 8,415,480, read-out: inhibition constant (Ki); cited from earlier work
Sequence of human PGF2α receptor (P43088 whole entry): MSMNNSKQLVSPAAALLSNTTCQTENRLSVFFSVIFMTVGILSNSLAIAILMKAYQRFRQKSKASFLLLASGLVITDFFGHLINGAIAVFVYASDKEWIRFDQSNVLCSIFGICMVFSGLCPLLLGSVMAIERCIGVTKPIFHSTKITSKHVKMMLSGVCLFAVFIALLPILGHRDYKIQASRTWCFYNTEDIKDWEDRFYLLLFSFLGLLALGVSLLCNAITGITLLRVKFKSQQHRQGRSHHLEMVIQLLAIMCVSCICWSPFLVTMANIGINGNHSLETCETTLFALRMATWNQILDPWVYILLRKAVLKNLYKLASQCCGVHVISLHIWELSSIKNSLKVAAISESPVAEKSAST

substrate for the Pept1 transporter protein [3]: not substrates | plasma concentrations and pharmacokinetic parameters compared with non-pregnant women ([5]; Part A): similar | day on which steady-state concentrations were achieved ([5]; Part A, 1,000 mg loading dose on Day 1): 1 days | absorption (plasma concentration vs. time profiles) ([5]; Part A, oral, day 1 to day 7, on atosiban): well absorbed | plasma concentrations and pharmacokinetic parameters compared with non-pregnant women ([5]; Part A, listed as Compound (2)): comparable
Structure (SMILES): CC(C)[C@H](N)C(=O)OCC[C@H](NC(=O)[C@@H]1SCCN1S(=O)(=O)c1ccc(-c2ccccc2)cc1)c1ccc(F)cc1 [compound (2), (3S)-3-({[(2S)-3-(biphenyl-4-ylsulfonyl)-1,3-thiazolidin-2-yl]carbonyl}-amino)-3-(4-fluorophenyl)propyl L-valinate]
adverse events compared with placebo [1]: fewer adverse events | adverse events reported for the fetuses [2]: No adverse events | Amniotic Fluid Index ([2]; days 1 to 14 (FIG. 3)): no clinically significant changes | Doppler ultrasound findings, effect on the ductus arteriosus ([2]; fetal cardiac safety): no constrictive effect on the ductus arteriosus | tolerability ([2]; oral administration for 7 days, women receiving atosiban): well tolerated | ductus arteriosus Pulsatility Index ([2]; over the dosing period (FIG. 2)): did not decrease | solubility in water and in FeSSIF and FaSSIF media [4]: improvements | OR (90% CI), delivery ≤48 h ([6]; all women, atosiban + compound (2) vs atosiban + placebo, adjusted odds ratio): 0.52 | OR (90% CI), delivery ≤7 days ([6]; all women, vs atosiban + placebo): 1.00 | reduction in uterine contractions relative to baseline ([6]; in combination with atosiban, vs atosiban and placebo (FIG. 7)): more sustained reduction | delivery rate within 7 days ([6]; singleton pregnancy, 24 to 30 weeks GA): 14.3% | OR (90% CI), delivery ≤7 days ([6]; singletons only, GA 24 to 30 wks at BL, vs atosiban + placebo): 0.53 | OR (90% CI), delivery ≤48 h ([6]; singletons only, vs atosiban + placebo): 0.39 | OR (90% CI), delivery ≤48 h ([6]; twins only, vs atosiban + placebo): 2.05 | patients that did not deliver within 7 days of administration ([7]; 9 singleton patients, 1,000 mg loading then 500 mg twice daily oral 7 days, on 48 h atosiban infusion): 8 patients | Mean±SD time to delivery ([7]; 9 singleton patients, oral compound (2) 7 days, on atosiban infusion): 41 ± 23 days

hygroscopicity [8]: low hygroscopicity | stability of crystal form ([8]; ambient conditions and elevated relative humidity): extended stability
Structure (SMILES): CC(C)[C@H](N)C(=O)OCC[C@H](NC(=O)[C@@H]1SCCN1S(=O)(=O)c1ccc(-c2ccccc2)cc1)c1ccc(F)cc1.Cl [Compound 3, (3S)-3-({[(2S)-3-(biphenyl-4-ylsulfonyl)-1,3-thiazolidin-2-yl]carbonyl}-amino)-3-(4-fluorophenyl)propyl L-valinate hydrochloride]

Structure (SMILES): O=C(N[C@@H](CCO)c1ccc(F)cc1)C1SCCN1S(=O)(=O)c1ccc(-c2ccccc2)cc1 (stereo in doubt) [Compound 1, 3-([1,1′-biphenyl]-4-ylsulfonyl)-N-[1-(4-fluorophenyl)-3-hydroxypropyl]-1,3-thiazolidine-2-carboxamide]
Ki [9]: 6 nM
